Data on 17 compounds can be found in patent US9708336B2, “Metallo-beta-lactamase inhibitors” (priority 2014, dated 2017).

The structures appear in SMILES notation. Read-outs that look alike come from different tables or passages of the source.

One experiment concerns the target NDM-1 (Klebsiella pneumoniae, UniProt C7C422). Nature of the experiment: biochemical. The experiment is classed as biochemical. The conditions noted are these: fluorescence assay with CCF2-FA substrate; read-out: NDM-1 IC50.
The test system of experiment [1] is Serratia marcescens expressing IMP-1 (CL5741). Nature of the experiment: Antibiotic potentiation activity: synergistic concentration (MITC95) with imipenem, OD600 growth. In kind it is cell-based. The conditions noted are these: CL5741 (IMP-1), 95% inhibition of bacterial growth. In outline: (§1)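 Clinical MBL-producing strains (E. coli NDM-1, S. marcescens IMP-1, K. pneumoniae VIM-1) from overnight plates were diluted 1:100 into 1.1×CAMHB. Compound was tested with imipenem at 4 μg/ml (optionally 1 μg/ml) or without it. After 22–24 h at 35 °C, growth was read as OD600.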

Experiment [2] has as its system Klebsiella pneumoniae expressing VIM-1 (IHMA599644). Described as above. The experiment is classed as cell-based. The conditions noted are these: IHMA599644 (VIM-1), 95% inhibition of bacterial growth. In outline: as §1
For experiment [3], the system named is Escherichia coli expressing NDM-1 (CLB30016). The experiment is described as above. The experiment is classed as cell-based. The conditions noted are these: CLB30016 (NDM-1), 95% inhibition of bacterial growth. A digest of the protocol:
as §1

A further experiment deals with VIM-1 (Pseudomonas aeruginosa (strain ATCC 15692 / DSM 22644 / CIP 104116 / JCM 14847 / LMG 12228 / 1C / PRS 101 / PAO1), UniProt A0A0F7KYQ8). Nature of the experiment: Enzyme activity: determination of IC50, fluorescence assay with CCF2-FA substrate (VIM-1). In kind it is biochemical.
The target of the next experiment is IMP-1 (Serratia marcescens, UniProt P52699). As to the kind of experiment: biochemical. The conditions noted are these: fluorescence assay with CCF2-FA substrate; read-out: IMP-1 IC50. In kind it is biochemical.
Sequence of IMP-1 (P52699 whole entry, looked up): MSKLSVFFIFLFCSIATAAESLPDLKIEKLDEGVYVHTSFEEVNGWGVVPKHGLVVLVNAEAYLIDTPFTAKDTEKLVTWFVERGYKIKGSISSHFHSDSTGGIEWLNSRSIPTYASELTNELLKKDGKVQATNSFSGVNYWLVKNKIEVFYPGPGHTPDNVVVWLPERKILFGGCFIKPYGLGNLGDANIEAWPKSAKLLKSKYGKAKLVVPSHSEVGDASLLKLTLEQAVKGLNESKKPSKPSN
Setting [4] is: fluorescence assay with CCF2-FA substrate, read-out: VIM-1 IC50.
The mark [5] stands for this setting: VIM-1 IC50, fluorescence assay with CCF2-FA substrate.

Sequence of NDM-1 (C7C422 whole entry, looked up, species assumed): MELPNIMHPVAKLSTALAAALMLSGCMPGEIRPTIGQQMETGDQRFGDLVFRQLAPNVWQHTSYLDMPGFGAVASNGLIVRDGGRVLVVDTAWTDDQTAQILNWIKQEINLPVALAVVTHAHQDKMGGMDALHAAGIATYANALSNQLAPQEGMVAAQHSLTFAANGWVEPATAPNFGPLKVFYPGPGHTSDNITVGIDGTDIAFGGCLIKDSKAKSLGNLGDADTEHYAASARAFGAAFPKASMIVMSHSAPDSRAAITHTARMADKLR

`NCCC1CCN(c2ccc(C(F)(F)F)c(S(N)(=O)=O)c2-c2nnn[nH]2)CC1` [Example 755, 3-[4-(2-aminoethyl)piperidin-1-yl]-2-(1H-tetrazol-5-yl)-6-(trifluoromethyl) benzenesulfonamide]: the IC50 (commonly the concentration that gives 50% inhibition) was 13.9 nM at NDM-1, 0.191 nM at VIM-1 (setting [4]) and 22.1 nM at IMP-1. Further, the “Serratia marcescens MITC95” value in experiment [1] came out at 6.25 µM. Also, in experiment [2], the “Klebsiella pneumoniae MITC95” value amounted to 3.125 µM. Further, the “Escherichia coli MITC95” value in experiment [3] stood at 6.25 µM.
`NS(=O)(=O)c1c(C(F)(F)F)ccc(N2C[C@@H](O)[C@H](O)C2)c1-c1nnn[nH]1` [Example 756, 3-[(3R,4R)-3,4-dihydroxypyrrolidin-1-yl]-2-(1H-tetrazol-5-yl)-6-(trifluoromethyl) benzenesulfonamide]: the 50% inhibitory concentration (IC50) at NDM-1 stood at 78.1 nM; at VIM-1 (setting [5]), 339 nM; on IMP-1 it was 89.1 nM. In addition, the “Serratia marcescens MITC95” value in experiment [1] is 12.5 µM. The “Klebsiella pneumoniae MITC95” value in experiment [2] is greater than 200 µM. In addition, the “Escherichia coli MITC95” value in experiment [3] stood at 12.5 µM.
In the case of `NS(=O)(=O)c1c(C(F)(F)F)ccc(N2C[C@@H](O)[C@@H](O)C2)c1-c1nnn[nH]1` [Example 757, 3-[(3R,4S)-3,4-dihydroxypyrrolidin-1-yl]-2-(1H-tetrazol-5-yl)-6-(trifluoromethyl) benzenesulfonamide], the IC50 was 82.8 nM on NDM-1, 353 nM on VIM-1 (setting [5]) and 111 nM at IMP-1. In addition, the “Serratia marcescens MITC95” value in experiment [1] came out at 25 µM. Moreover, the “Klebsiella pneumoniae MITC95” value in experiment [2] was greater than 200 µM. Besides, the “Escherichia coli MITC95” value in experiment [3] was found to be 12.5 µM.
As for `NC1CN(C2CCN(c3ccc(C(F)(F)F)c(S(N)(=O)=O)c3-c3nnn[nH]3)CC2)C1` [Example 758, 3-[4-(3-aminoazetidin-1-yl)piperidin-1-yl]-2-(1H-tetrazol-5-yl)-6-(trifluoromethyl) benzenesulfonamide], the concentration for half-maximal inhibition (IC50) on NDM-1 worked out at 29.6 nM; against VIM-1 (setting [5]), 2.44 nM; at IMP-1, 45.8 nM. For the same compound, the “Serratia marcescens MITC95” value in experiment [1] came to 6.25 µM. Also, in experiment [2], the “Klebsiella pneumoniae MITC95” value turned out to be 6.25 µM. For the same compound, the “Escherichia coli MITC95” value in experiment [3] worked out at 6.25 µM.
Take `NS(=O)(=O)c1c(C(F)(F)F)ccc(N2CCN(CCO)CC2)c1-c1nnn[nH]1` [Example 759, 3-[4-(2-hydroxyethyl)piperazin-1-yl]-2-(1H-tetrazol-5-yl)-6-(trifluoromethyl) benzenesulfonamide]: the IC50 at NDM-1 amounted to 22.5 nM; at VIM-1 (setting [4]), 45.6 nM; on IMP-1 it was 40.9 nM. The “Serratia marcescens MITC95” value in experiment [1] is 3.125 µM. For the same compound, the “Klebsiella pneumoniae MITC95” value in experiment [2] is 12.5 µM. Moreover, in experiment [3], the “Escherichia coli MITC95” value was 3.125 µM.
In the case of `CC(C)(C)C(=O)NCC1CCN(c2ccc(C(F)(F)F)c(S(N)(=O)=O)c2-c2nnn[nH]2)CC1` [Example 760, 2,2-dimethyl-N-({1-[3-sulfamoyl-2-(1H-tetrazol-5-yl)-4-(trifluoromethyl)phenyl]piperidin-4-yl}methyl) propanamide], the IC50 at NDM-1 is 5.64 nM; at VIM-1 (setting [4]), 1.51 nM; at IMP-1 it was 2.08 nM. In addition, in experiment [1], the “Serratia marcescens MITC95” value was 25 µM. Further, the “Klebsiella pneumoniae MITC95” value in experiment [2] is 100 µM. The “Escherichia coli MITC95” value in experiment [3] turned out to be 100 µM.
Turning to `NC1CCCC12CCN(c1ccc(C(F)(F)F)c(S(N)(=O)=O)c1-c1nnn[nH]1)CC2` (stereo not drawn) [Example 761, 3-(1-amino-8-azaspiro[4.5]dec-8-yl)-2-(1H-tetrazol-5-yl)-6-(trifluoromethyl) benzenesulfonamide], the IC50 on NDM-1 amounted to 46 nM; at VIM-1 (setting [4]), 48.3 nM; on IMP-1 it was 104 nM. Also, the “Serratia marcescens MITC95” value in experiment [1] was 100 µM. Besides, the “Klebsiella pneumoniae MITC95” value in experiment [2] is greater than 200 µM. In addition, in experiment [3], the “Escherichia coli MITC95” value is 100 µM.
`NCC1CN(C2CCN(c3ccc(C(F)(F)F)c(S(N)(=O)=O)c3-c3nnn[nH]3)CC2)C1` [Example 762, 3-{4-[3-(aminomethyl)azetidin-1-yl]piperidin-1-yl}-2-(1H-tetrazol-5-yl)-6-(trifluoromethyl) benzenesulfonamide]: the IC50 at NDM-1 came to 73.2 nM; at VIM-1 (setting [4]), 14.2 nM; at IMP-1, 123 nM. Moreover, the “Serratia marcescens MITC95” value in experiment [1] amounted to 6.25 µM. Moreover, the “Klebsiella pneumoniae MITC95” value in experiment [2] was 6.25 µM. For the same compound, the “Escherichia coli MITC95” value in experiment [3] is 3.125 µM.
Take `NS(=O)(=O)c1c(C(F)(F)F)ccc(N2CCN(CCCO)CC2)c1-c1nnn[nH]1` [Example 763, 3-[4-(3-hydroxypropyl)piperazin-1-yl]-2-(1H-tetrazol-5-yl)-6-(trifluoromethyl) benzenesulfonamide]: the IC50 at NDM-1 was determined as 37.7 nM; at VIM-1 (setting [4]), 73.6 nM; on IMP-1 it was 46.4 nM. Moreover, in experiment [1], the “Serratia marcescens MITC95” value is 3.125 µM. The “Klebsiella pneumoniae MITC95” value in experiment [2] was 50 µM. Also, in experiment [3], the “Escherichia coli MITC95” value is 1.563 µM.
With `Nc1nnc(C2CCN(c3ccc(C(F)(F)F)c(S(N)(=O)=O)c3-c3nnn[nH]3)CC2)s1` [Example 764, 3-[4-(5-amino-1,3,4-thiadiazol-2-yl)piperidin-1-yl]-2-(1H-tetrazol-5-yl)-6-(trifluoromethyl) benzenesulfonamide], the IC50 on NDM-1 was found to be 273 nM; against VIM-1 (setting [5]), 27.7 nM; on IMP-1, 68.7 nM. Besides, the “Serratia marcescens MITC95” value in experiment [1] was 50 µM. The “Klebsiella pneumoniae MITC95” value in experiment [2] is greater than 200 µM. Also, the “Escherichia coli MITC95” value in experiment [3] was 100 µM.
`NCCCCN1CCN(c2ccc(C(F)(F)F)c(S(N)(=O)=O)c2-c2nnn[nH]2)CC1` [Example 765, 3-[4-(4-aminobutyl)piperazin-1-yl]-2-(1H-tetrazol-5-yl)-6-(trifluoromethyl) benzenesulfonamide]: the IC50 at NDM-1 was determined as 93.3 nM; on VIM-1 (setting [4]) it was 125 nM; on IMP-1 it was 131 nM. Moreover, the “Serratia marcescens MITC95” value in experiment [1] came out at 3.125 µM. Besides, the “Klebsiella pneumoniae MITC95” value in experiment [2] worked out at 25 µM. In addition, in experiment [3], the “Escherichia coli MITC95” value stood at 6.25 µM.
Consider `NC1(C2CCN(c3ccc(C(F)(F)F)c(S(N)(=O)=O)c3-c3nnn[nH]3)C2)CC1` (stereo not drawn) [Example 766, 3-[3-(1-aminocyclopropyl)pyrrolidin-1-yl]-2-(1H-tetrazol-5-yl)-6-(trifluoromethyl) benzenesulfonamide], for which the results for the IC50 on NDM-1, against VIM-1 (setting [5]) and on IMP-1 were 134 nM, 8.52 nM and 120 nM, respectively. Moreover, the “Serratia marcescens MITC95” value in experiment [1] was 25 µM. The “Klebsiella pneumoniae MITC95” value in experiment [2] was determined as 12.5 µM. Moreover, in experiment [3], the “Escherichia coli MITC95” value turned out to be 25 µM.
Regarding `NC1CCC2CN(c3ccc(C(F)(F)F)c(S(N)(=O)=O)c3-c3nnn[nH]3)CC2C1` (stereo not drawn) [Example 767, 3-(5-aminooctahydro-2H-isoindol-2-yl)-2-(1H-tetrazol-5-yl)-6-(trifluoromethyl) benzenesulfonamide], the IC50 came out at 208 nM at NDM-1, 4.58 nM at VIM-1 (setting [4]) and 223 nM at IMP-1. For the same compound, the “Serratia marcescens MITC95” value in experiment [1] was found to be 50 µM. Also, the “Klebsiella pneumoniae MITC95” value in experiment [2] came out at 12.5 µM. Moreover, in experiment [3], the “Escherichia coli MITC95” value was determined as 200 µM.
Turning to `NS(=O)(=O)c1c(C(F)(F)F)ccc(N2CCCC(CCCO)C2)c1-c1nnn[nH]1` (stereo not drawn) [Example 769, 3-[3-(3-hydroxypropyl)piperidin-1-yl]-2-(1H-tetrazol-5-yl)-6-(trifluoromethyl) benzenesulfonamide], the IC50 amounted to 7.48 nM at NDM-1, 0.998 nM on VIM-1 (setting [4]) and 11.4 nM on IMP-1. Also, the “Serratia marcescens MITC95” value in experiment [1] came to 25 µM. The “Klebsiella pneumoniae MITC95” value in experiment [2] was 50 µM. The “Escherichia coli MITC95” value in experiment [3] was determined as 100 µM.
In the case of `NS(=O)(=O)c1c(C(F)(F)F)ccc(N2CCC(N3CCNCC3)C2)c1-c1nnn[nH]1` (stereo not drawn) [Example 770, 3-(3-piperazin-1-ylpyrrolidin-1-yl)-2-(1H-tetrazol-5-yl)-6-(trifluoromethyl) benzenesulfonamide], the IC50 at NDM-1 is 366 nM; on VIM-1 (setting [4]), 7.51 nM; at IMP-1 it was 251 nM. The “Serratia marcescens MITC95” value in experiment [1] is 50 µM. For the same compound, in experiment [2], the “Klebsiella pneumoniae MITC95” value was 3.125 µM. Further, the “Escherichia coli MITC95” value in experiment [3] is 50 µM.
Turning to `NS(=O)(=O)c1c(C(F)(F)F)ccc(N2CCC3(CCNCC3)C2)c1-c1nnn[nH]1` [Example 771, 3-(2,8-diazaspiro[4.5]dec-2-yl)-2-(1H-tetrazol-5-yl)-6-(trifluoromethyl) benzenesulfonamide], the IC50 at NDM-1 amounted to 30.7 nM; on VIM-1 (setting [4]), 22.9 nM; on IMP-1, 227 nM. The “Serratia marcescens MITC95” value in experiment [1] came out at 50 µM. Besides, in experiment [2], the “Klebsiella pneumoniae MITC95” value came to 50 µM. The “Escherichia coli MITC95” value in experiment [3] turned out to be 25 µM.
As to `NS(=O)(=O)c1c(C(F)(F)F)ccc(N2CCCC3(CCNCC3)C2)c1-c1nnn[nH]1` [Example 772, 3-(2,9-diazaspiro[5.5]undec-2-yl)-2-(1H-tetrazol-5-yl)-6-(trifluoromethyl) benzenesulfonamide], the IC50 at NDM-1 is 33.9 nM; on VIM-1 (setting [4]) it was 13.9 nM; at IMP-1, 114 nM. For the same compound, the “Serratia marcescens MITC95” value in experiment [1] worked out at 50 µM. For the same compound, the “Klebsiella pneumoniae MITC95” value in experiment [2] is 50 µM. The “Escherichia coli MITC95” value in experiment [3] was found to be 12.5 µM.
